Assay: mn = molality of the nth substance listed, in mol/kg
Conditions: 85 kPa, Liquid; for viscosity: Capillary tube (Ostwald / Ubbelohde) method; for speed of sound: Frequency=3 MHz, Single path-length method; for mass density: Vibrating tube method

C[N+](C)(C)CCO.NCC(=O)[O-] [2-hydroxy-N,N,N-trimethylethanaminium glycinate] + O
Conditions | mass density [kg/m3] | speed of sound [m/s] | viscosity [mPa·s]
288.15 K, m1 = 0.0111 | 999.43 | 1468.1 | 1.251
288.15 K, m1 = 0.0214 | 999.73 | 1469.5 | 1.263
288.15 K, m1 = 0.0318 | 1000.03 | 1470.8 | 1.275
288.15 K, m1 = 0.0417 | 1000.3 | 1472.1 | 1.288
288.15 K, m1 = 0.0534 | 1000.63 | 1473.6 | 1.302
288.15 K, m1 = 0.0619 | 1000.85 | 1474.7 | 1.313
298.15 K, m1 = 0.0111 | 997.68 | 1498.2 | 1
298.15 K, m1 = 0.0214 | 997.97 | 1499.4 | 1.011
298.15 K, m1 = 0.0318 | 998.25 | 1500.6 | 1.02
298.15 K, m1 = 0.0417 | 998.57 | 1501.7 | 1.03
298.15 K, m1 = 0.0534 | 998.8 | 1503 | 1.042
298.15 K, m1 = 0.0619 | 997.38 | 1504 | 1.049
308.15 K, m1 = 0.0111 | 994.36 | 1521.1 | 0.832
308.15 K, m1 = 0.0214 | 994.66 | 1522.2 | 0.841
308.15 K, m1 = 0.0318 | 994.96 | 1523.2 | 0.851
308.15 K, m1 = 0.0417 | 995.24 | 1524.1 | 0.858
308.15 K, m1 = 0.0534 | 995.56 | 1525.2 | 0.869
308.15 K, m1 = 0.0619 | 995.79 | 1526 | 0.877
318.15 K, m1 = 0.0111 | 990.55 | 1536.9 | 0.706
318.15 K, m1 = 0.0214 | 990.85 | 1537.7 | 0.714
318.15 K, m1 = 0.0318 | 991.15 | 1538.6 | 0.722
318.15 K, m1 = 0.0417 | 991.43 | 1539.4 | 0.729
318.15 K, m1 = 0.0534 | 991.75 | 1540.5 | 0.737
318.15 K, m1 = 0.0619 | 991.99 | 1541.2 | 0.741

C[N+](C)(C)CCO.O=C([O-])[C@@H]1CCCN1 [2-hydroxy-N,N,N-trimethylethanaminium L-prolinate] + O
Conditions | mass density [kg/m3] | speed of sound [m/s] | viscosity [mPa·s]
288.15 K, m1 = 0.0136 | 999.51 | 1468.7 | 1.325
288.15 K, m1 = 0.0217 | 999.76 | 1469.9 | 1.337
288.15 K, m1 = 0.0329 | 1000.09 | 1471.5 | 1.351
288.15 K, m1 = 0.044 | 1000.42 | 1473.1 | 1.364
288.15 K, m1 = 0.0525 | 1000.67 | 1474.2 | 1.375
288.15 K, m1 = 0.0626 | 1000.96 | 1475.6 | 1.388
298.15 K, m1 = 0.0136 | 997.47 | 1499 | 1.059
298.15 K, m1 = 0.0217 | 997.71 | 1500.2 | 1.067
298.15 K, m1 = 0.0329 | 998.05 | 1501.8 | 1.077
298.15 K, m1 = 0.044 | 998.38 | 1503.4 | 1.089
298.15 K, m1 = 0.0525 | 998.63 | 1504.5 | 1.096
298.15 K, m1 = 0.0626 | 998.92 | 1505.9 | 1.104
308.15 K, m1 = 0.0136 | 994.45 | 1522.1 | 0.879
308.15 K, m1 = 0.0217 | 994.7 | 1523.3 | 0.884
308.15 K, m1 = 0.0329 | 995.04 | 1524.8 | 0.894
308.15 K, m1 = 0.044 | 995.37 | 1526.4 | 0.902
308.15 K, m1 = 0.0525 | 995.63 | 1527.5 | 0.908
308.15 K, m1 = 0.0626 | 995.92 | 1528.9 | 0.916
318.15 K, m1 = 0.0136 | 990.64 | 1538 | 0.74
318.15 K, m1 = 0.0217 | 990.9 | 1539.1 | 0.746
318.15 K, m1 = 0.0329 | 991.24 | 1540.7 | 0.753
318.15 K, m1 = 0.044 | 991.58 | 1542.2 | 0.76
318.15 K, m1 = 0.0525 | 991.84 | 1543.3 | 0.764
318.15 K, m1 = 0.0626 | 992.13 | 1544.6 | 0.772

Reference: the NIST ThermoML archive (doi:10.1021/acs.jced.8b00879)
